Source: ChEMBL document CHEMBL1157539, “Thousands of chemical starting points for antimalarial lead identification” (Nature, 2010)

System: Plasmodium falciparum
Experiment: GSK_TCMDC: Inhibition of Plasmodium falciparum 3D7 in whole erythrocytes, using parasite LDH activity as an index of growth.
Assay type: functional, organism-based
Settings: Plasmodium falciparum, 3D7

Row | Structure (SMILES) | XC50
1 | CCN(CC)CCN(Cc1ccc(-c2ccc(C(F)(F)F)cc2)cc1)C(=O)Cn1cc(Cc2cnn(C)c2)c(=O)nc1/C=C/c1ccc(F)cc1 | 1060 nM
2 | CCOC(=O)c1cn(CC)c2cc(N3CCCCCC3)c(F)cc2c1=O | 413 nM
3 | CC1(C)CNCc2cc(NC(=O)/C=C/c3ccc(Cl)cc3)ccc21 | 1180 nM
4 | Cc1ccc(OCCCCONC(=O)c2ccccc2)cc1 | 145 nM
5 | CCCOc1ccc(-c2nonc2NC(=O)c2cccc(OC)c2)cc1OCCC | 1150 nM
6 | COc1ccc(N2CCN(C(CNC(=O)C3CCCCC3)c3ccc4c(c3)OCO4)CC2)cc1 (stereo not drawn) | 566 nM
7 | CN(C)c1ccc(-c2ccc(C(=O)NC3CCN(Cc4ccc5c(c4)OCCO5)CC3)s2)cc1 | 1120 nM
8 | Cc1ccc(NC(=S)N2CCCN(CCCCCNC(=O)/C=C/c3ccc(Cl)c(Cl)c3)CC2)cc1Cl | 916 nM
9 | O=C(CN1CCN(C(=O)c2ccco2)CC1)Nc1ccccc1Br | 558 nM
10 | O=C(/C=C/c1ccc(-c2nc3ccc(Cl)cc3[nH]2)cc1)NCc1cccc(F)c1 | 640 nM
11 | CC(C)c1ccc(OCC(O)CN(C)C(C)C(O)c2ccccc2)c(Br)c1 (stereo not drawn) | 815 nM
12 | COc1ccc2nc(/N=C3\NC(c4ccccn4)(c4ccccn4)C(=O)N3C)[nH]c2c1 | 586 nM
13 | CCN(CC)c1ccc(-c2nc3cc(Cl)cnc3[nH]2)cc1 | 1130 nM
14 | CC(Oc1ccc(Cl)cc1)C(=O)Nc1cc(C(F)(F)F)ccc1N1CCOCC1 (stereo not drawn) | 532 nM
15 | NC1=NC2(CCCCC2)N(OCCCCCCc2ccccc2)C(N)=N1 | 347 nM
16 | CO/C(=C\C=C\c1cc2cc(Cl)c(Cl)cc2[nH]1)C(=O)NCCCN1CCN(c2cccc(Cl)c2)CC1 | 730 nM
17 | COc1ccc2nccc(N3CCC(NCCNCc4ccc5c(n4)NC(=O)CO5)C3)c2n1 (stereo not drawn) | 862 nM
18 | N#Cc1ccc2c(c1)CN(CCC1CCC(NC(=O)c3cc4cc(OC(F)(F)F)ccc4[nH]3)CC1)CC2 (stereo not drawn) | 777 nM
19 | COc1ccccc1N1CCN(C(C(=O)NCc2ccc3c(c2)OCO3)c2ccc(C)cc2)CC1 (stereo not drawn) | 985 nM

Row | Structure (SMILES) | XC50
20 | COc1ccc(NC(=O)/C=C/c2ccc(Cl)c(C(F)(F)F)c2)cc1OCCN(C(C)C)C(C)C | 626 nM
21 | O=C(Nc1ccc(OC2CCN(Cc3ccc(F)cc3)C2)c(Cl)c1)c1ccco1 (stereo not drawn) | 195 nM
22 | O=C(N[C@@H](CC1CCCCC1)C(=O)NC1CCCCCC1)c1ccc(O)c(-c2ccc(Cl)c(Cl)c2)c1 | 102 nM
23 | COc1cc(-n2c(CN3CCCC3)nc3cc(-c4ccc(Cl)cc4)sc3c2=O)ccc1OCCN1CCCC1 | 1040 nM
24 | COC(=O)c1sc(-c2ccc(Cl)cc2)cc1N(CCCN1CCC(N2CCCCC2)CC1)S(=O)(=O)c1ccc(C)cc1 | 744 nM
25 | CC(=O)c1ccc(N2CCN(C(=O)Nc3ccc(Cl)cc3)CC2)cc1 | 979 nM
26 | O=C(NC1CCN(c2ccnc3cc(Cl)ccc23)C1)c1ccc(F)cc1 (stereo not drawn) | 187 nM
27 | CN1CCN(CCCN(Cc2cccc(-c3ccc(CNC4CCCC4)cc3)c2)C(=O)CCC2CCCC2)CC1 | 761 nM
28 | O=S(=O)(c1ccc(NC(S)=NN=Cc2ccccn2)cc1)N1CCCCC1 | 720 nM
29 | CC(C)(C)CC(=O)Nc1ccc(Nc2cc(-c3ccncc3)cc3ncc(C(N)=O)cc23)cc1 | 700 nM
30 | COc1ccc(NS(=O)(=O)c2ccccc2Br)cc1N1CCN(C)CC1 | 967 nM
31 | CC(=O)c1ccccc1OCCSc1nnc(Cc2cccs2)n1C1CCCCC1 | 919 nM
32 | CS(=O)(=O)c1ccc(CNCc2cccc(-c3cccc(-c4nc5cc(F)ccc5[nH]4)c3)c2)cc1 | 559 nM
33 | CCCc1cc([C@@H](O)[C@@H]2C[C@@H]3CCN2C[C@@H]3CC)c2ccccc2n1 | 433 nM
34 | Cc1ccnc(NC(c2ccc(Cl)c([N+](=O)[O-])c2)c2ccc3cccnc3c2O)c1 (stereo not drawn) | 927 nM
35 | CN(C)S(=O)(=O)c1ccc(Nc2nc(NCCC3C=NC=N3)nc3cc[nH]c(=O)c23)cc1 (stereo not drawn) | 929 nM
36 | CS(=O)(=O)c1cccc2sc(N3CCN(C(=O)c4ccc([N+](=O)[O-])o4)CC3)nc12 | 1240 nM
37 | NC(=O)c1cccc(Nc2nccc(Nc3ccc(Oc4cccc5ccccc45)cc3)n2)c1 | 1150 nM
38 | O=C(NCc1ccc(Cl)c(Cl)c1)c1cccc(C2CCCN(Cc3ccc4[nH]cnc4c3)C2)c1 (stereo not drawn) | 932 nM
